Measured values published in PubChem BioAssay AID248 (DTP/NCI, 2004).
Where “and” joins values, the source holds several entries; their conditions need not be identical. Equal entries are not always repeated. Toxic doses and inconclusive results are not listed. No stated cut-off is given here; in the data, active means T/C of 150% or more; inactive means T/C below 125%.

System: L1210 leukemia ip in BDF1 mice, survival T/C
Experiment: NCI In Vivo Anticancer Drug Screen. Data for tumor model L1210 Leukemia (intraperitoneal) in B6D2F1 (BDF1) mice
Conditions: endpoint: mean survival time, higher = longer survival
Procedure, shortened: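 Mice bearing the transplanted tumor received compound or vehicle. Survival of the treated group was divided by that of the vehicle-treated control group to give the ratio.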

[1] = dose: 100.0 mg/kg/injection, schedule: Q04DX003 (ip), vehicle: Klucel (hydroxypropylcellulose) (HPC)
[2] = dose: 200.0 mg/kg/injection, schedule: Q04DX003 (ip), vehicle: Klucel (hydroxypropylcellulose) (HPC)
[3] = dose: 400.0 mg/kg/injection, schedule: Q04DX003 (ip), vehicle: Klucel (hydroxypropylcellulose) (HPC)
[4] = dose: 100.0 mg/kg/injection, schedule: Q01DX009 (ip), vehicle: Klucel (hydroxypropylcellulose) (HPC)
[5] = dose: 200.0 mg/kg/injection, schedule: Q01DX009 (ip), vehicle: Klucel (hydroxypropylcellulose) (HPC)
[6] = dose: 400.0 mg/kg/injection, schedule: Q01DX009 (ip), vehicle: Klucel (hydroxypropylcellulose) (HPC)
[7] = dose: 100.0 mg/kg/injection, schedule: Q04DX003 (ip), vehicle: gum acacia
[8] = dose: 200.0 mg/kg/injection, schedule: Q04DX003 (ip), vehicle: gum acacia
[9] = dose: 400.0 mg/kg/injection, schedule: Q04DX003 (ip), vehicle: gum acacia
[10] = dose: 100.0 mg/kg/injection, schedule: Q01DX001 (ip), vehicle: Klucel (hydroxypropylcellulose) (HPC)
[11] = dose: 200.0 mg/kg/injection, schedule: Q01DX001 (ip), vehicle: Klucel (hydroxypropylcellulose) (HPC)
[12] = dose: 400.0 mg/kg/injection, schedule: Q01DX001 (ip), vehicle: Klucel (hydroxypropylcellulose) (HPC)
[13] = dose: 100.0 mg/kg/injection, schedule: Q04DX003 (ip), vehicle: saline with Tween-80
[14] = dose: 200.0 mg/kg/injection, schedule: Q04DX003 (ip), vehicle: saline with Tween-80
[15] = dose: 100.0 mg/kg/injection, schedule: Q04DX002 (ip), vehicle: saline with Tween-80
[16] = dose: 200.0 mg/kg/injection, schedule: Q04DX002 (ip), vehicle: saline with Tween-80
[17] = dose: 400.0 mg/kg/injection, schedule: Q04DX002 (ip), vehicle: saline with Tween-80

Measured: T/C

O=C(O)CSc1ccc2ccccc2c1
inactive: dose: 100.0 mg/kg/injection, schedule: Q04DX002 (ip), vehicle: Klucel (hydroxypropylcellulose) (HPC) 89 % of control | dose: 200.0 mg/kg/injection, schedule: Q04DX002 (ip), vehicle: Klucel (hydroxypropylcellulose) (HPC) 111 % of control | dose: 400.0 mg/kg/injection, schedule: Q04DX002 (ip), vehicle: Klucel (hydroxypropylcellulose) (HPC) 108 % of control

O=C(c1ccccc1Br)C1C(c2ccccc2)N1C1CCCCC1 (stereo not drawn)
inactive: dose: 50.0 mg/kg/injection, schedule: Q04DX003 (ip), vehicle: Klucel (hydroxypropylcellulose) (HPC) 102 % of control | [1] 102 % of control | [2] 98 % of control | [3] 93 % of control

CCOP(=O)(OCC)C1=C(P(=O)(OCC)OCC)CCCC1
inactive: dose: 9.5 mg/kg/injection, schedule: Q01DX001 (ip), vehicle: other 103 % of control | dose: 19.0 mg/kg/injection, schedule: Q01DX001 (ip), vehicle: other 105 % of control | dose: 38.0 mg/kg/injection, schedule: Q01DX001 (ip), vehicle: other 95 % of control

COC(=O)c1cc(C)c(I)c([N+](=O)[O-])c1
inactive: [4] 109 % of control | [5] 102 % of control | [6] 98 % of control

COc1ccc(C)cc1N=Nc1cc(C)ccc1OC
inactive: dose: 100.0 mg/kg/injection, schedule: Q01DX009 (ip), vehicle: gum acacia 100 % of control | [7] 91 % of control | dose: 200.0 mg/kg/injection, schedule: Q01DX009 (ip), vehicle: gum acacia 91 % of control | [8] 86 % of control | dose: 400.0 mg/kg/injection, schedule: Q01DX009 (ip), vehicle: gum acacia 88 % of control | [9] 92 % of control

CCN(CC)C(=O)CSC#N
inactive: dose: 6.25 mg/kg/injection, schedule: Q04DX002 (ip), vehicle: other 88 % of control | dose: 12.5 mg/kg/injection, schedule: Q04DX002 (ip), vehicle: other 103 % of control

C/C=C/CS(=O)(=O)Cc1ccccc1
inactive: dose: 100.0 mg/kg/injection, schedule: Q01DX001 (ip), vehicle: saline with Tween-80 103 % of control | dose: 200.0 mg/kg/injection, schedule: Q01DX001 (ip), vehicle: saline with Tween-80 95 % of control | dose: 400.0 mg/kg/injection, schedule: Q01DX001 (ip), vehicle: saline with Tween-80 103 % of control

O=C(CNC(=O)Nc1nccs1)N/N=C/c1cccc([N+](=O)[O-])c1
inactive: [4] 97 % of control | [5] 100 % of control and 90 % of control | [6] 97 % of control

CC(C)(C)OC(=O)CCSC(C)(C)C
inactive: [10] 96 % of control | [11] 96 % of control | [12] 96 % of control

Oc1ccc(N=Nc2ccccc2)c(O)c1.Oc1ccc(N=Nc2ccccc2)c(O)c1.[Cu]
inactive: dose: 50.0 mg/kg/injection, schedule: Q01DX001 (ip), vehicle: carboxymethylcellulose (CMC) 90 % of control | dose: 400.0 mg/kg/injection, schedule: Q01DX001 (ip), vehicle: carboxymethylcellulose (CMC) 87 % of control

CN(C)CCCNC(=O)Nc1ccccc1
inactive: [4] 100 % of control | [1] 120 % of control | [5] 98 % of control | [2] 93 % of control

CC(C)(C)N(CCC(=O)c1ccccc1)C(=O)c1ccccc1
inactive: [4] 98 % of control | [5] 102 % of control | [6] 88 % of control

c1ccc(C[P+](Cc2ccccc2)(c2ccccc2)c2ccccc2)cc1
inactive: dose: 75.0 mg/kg/injection, schedule: Q01DX001 (ip), vehicle: saline 94 % of control

O=[N+]([O-])CC(OCCCO)C(Cl)(Cl)Cl (stereo not drawn)
inactive: dose: 6.25 mg/kg/injection, schedule: Q01DX009 (ip), vehicle: saline with Tween-80 92 % of control | dose: 12.5 mg/kg/injection, schedule: Q01DX009 (ip), vehicle: saline with Tween-80 101 % of control | dose: 25.0 mg/kg/injection, schedule: Q01DX009 (ip), vehicle: saline with Tween-80 104 % of control | dose: 50.0 mg/kg/injection, schedule: Q01DX009 (ip), vehicle: saline with Tween-80 92 % of control and 91 % of control

O=c1c2ccccc2c2ccccc2n1-c1ccccc1
inactive: [10] 97 % of control | [11] 94 % of control | [12] 91 % of control

S=C1SCN(c2ccccc2)CN1c1ccccc1
inactive: [13] 88 % of control | [14] 88 % of control

CN(C)C(=O)Sc1ccc(C(=O)O)cc1
inactive: [7] 109 % of control | [8] 98 % of control | [9] 113 % of control

COc1ccc(/C=C/C(=O)c2ccccc2)cc1OC
inactive: dose: 50.0 mg/kg/injection, schedule: Q01DX009 (ip), vehicle: Klucel (hydroxypropylcellulose) (HPC) 92 % of control and 103 % of control | [4] 105 % of control and 108 % of control | [1] 104 % of control | dose: 100.0 mg/kg/injection, schedule: Q04DX003 (ip), vehicle: water 93 % of control | [5] 99 % of control and 95 % of control | [2] 98 % of control | dose: 200.0 mg/kg/injection, schedule: Q04DX003 (ip), vehicle: water 102 % of control | [6] 93 % of control | [3] 91 % of control | dose: 400.0 mg/kg/injection, schedule: Q04DX003 (ip), vehicle: water 96 % of control

CO/C(Cc1cc(O)cc(O)c1)=N\N
inactive: [13] 93 % of control | [14] 92 % of control | dose: 400.0 mg/kg/injection, schedule: Q04DX003 (ip), vehicle: saline with Tween-80 101 % of control

COc1ccc(N=CN(C)C)nn1
inactive: [15] 91 % of control | [16] 97 % of control | [17] 97 % of control

CC1(C)CCC(C)(C)C2CC3CC4C(CC3CC21)C(C)(C)CCC4(C)C (stereo not drawn)
inactive: dose: 100.0 mg/kg/injection, schedule: Q01DX001 (ip), vehicle: saline 89 % of control | dose: 200.0 mg/kg/injection, schedule: Q01DX001 (ip), vehicle: saline 104 % of control | dose: 400.0 mg/kg/injection, schedule: Q01DX001 (ip), vehicle: saline 97 % of control

O=C1OCCN1C(=O)c1ccc(Cl)c(Cl)c1
inactive: dose: 25.0 mg/kg/injection, schedule: Q01DX007 (ip), vehicle: Klucel (hydroxypropylcellulose) (HPC) 97 % of control | dose: 50.0 mg/kg/injection, schedule: Q01DX007 (ip), vehicle: Klucel (hydroxypropylcellulose) (HPC) 95 % of control | [10] 100 % of control | dose: 100.0 mg/kg/injection, schedule: Q01DX007 (ip), vehicle: Klucel (hydroxypropylcellulose) (HPC) 100 % of control | [4] 94 % of control | [1] 95 % of control | [11] 94 % of control | [2] 100 % of control | [12] 96 % of control | [6] 87 % of control | [3] 100 % of control

N#C/C(=C/c1cccc2ccccc12)C(N)=O
inactive: [15] 98 % of control | [16] 91 % of control | [17] 98 % of control

CC(=O)Oc1cn(C)c2c1C(=O)CC(C)(C)C2
inactive: dose: 75.0 mg/kg/injection, schedule: Q04DX002 (ip), vehicle: Klucel (hydroxypropylcellulose) (HPC) 94 % of control | dose: 150.0 mg/kg/injection, schedule: Q04DX002 (ip), vehicle: Klucel (hydroxypropylcellulose) (HPC) 105 % of control | dose: 300.0 mg/kg/injection, schedule: Q04DX002 (ip), vehicle: Klucel (hydroxypropylcellulose) (HPC) 97 % of control
